Reference: patent US20260337177A1, “TEAD CORE INHIBITORS FOR CANCER THERAPEUTICS” (University of Florida Research Foundation, Incorporated, priority 2023, published 2026)
Read-outs that look alike come from different tables or passages of the source.

Assays:
Huh7 cells [1] = assay: Huh7 cell proliferation assay (CCK8); type: cell-based, human; details: for IC50: Homo sapiens
Procedure: CCK8 assay kit was used to determine antiproliferative activity of synthesized compounds against Huh7 cell line. First, Huh7 cells were seeded into 96-well plates at a density of 3000 cells/well and incubated overnight. Cells were then co-incubated with compounds at 8 concentrations for 72 h. Then, the cell proliferation was determined by the CCK8 kit according to the standard protocol. Experiments were performed in triplicate.

AML12 cells = assay: AML12 normal liver cell growth inhibition (CCK8); type: cell-based
YAP-TEAD = assay: Co-immunoprecipitation of endogenous YAP and TEAD in NCI-H226 cells; type: cell-based
Procedure: To assess if compound 22 inhibits the interaction between YAP/TAZ and TEAD proteins within the cell, compound 22 was administered to NF2-deficient NCI-H226 cells for 24 hours. Subsequently, the endogenous TEAD protein was isolated through immunoprecipitation using a pan-TEAD antibody and examined the immunocomplexes for the presence of YAP/TAZ proteins using anti-YAP/TAZ antibodies (as depicted in FIG. 18).
[…] protein lysate extracted using lysis buffer were incubated with 5 μL pan-TEAD antibody (CST #13295, 33 g/ml) at 4 ° C overnight with rotation, and then incubated with 15 μL Protein G magnetic beads (Fisher #88847) at R.T. for 1 hour with rotation. After binding, beads were washed three times with lysis buffer and one time with ddH2O. IP samples were eluted using 1× gel loading buffer supplied with 20 mM DTT and boiled at 96 ° C for 10 min. […] protein lysate were used for input, and 3% IP flow-thru were used for binding efficiency control. *0 indicated DMSO control. For the detection process, primary antibodies used were: YAP/TAZ rabbit monoclonal antibody (mAb) at a dilution of 1:2000, CST #8418S; Pan-TEAD rabbit mAb at 1:2000, CST #13295S; and 3-actin mouse mAb at 1:8000, Sigma #A5316. Secondary antibodies applied in 1× TBST were: Rabbit IgG-HRP at 1:10000 and Mouse IgG-HRP also at 1:10000.

Huh7 cells [2] = assay: Cell cycle analysis by flow cytometry, Huh7; type: cell-based, human; details: 5 and 10 μM, 48 hours
Procedure: (§1) To study the potential mechanistic pathways responsible for cell proliferation inhibition by compound 22, the change of cell cycle in Huh7 and HepG2 liver cancer cell lines was evaluated. DNA-based cell cycle analysis was performed using flow cytometry. […] To explore whether compound 22 also induces G1 phase arrest in HepG2 cells similar to its effects on Huh7 cells, parallel investigations were performed. […] However, the impact of 22 on inducing G1 phase arrest was less pronounced in HepG2 cells compared to Huh7 cells.
(§2) For cell cycle analysis, cells were fixed with pre-cold 70% ethanol for 30 minutes. Then the cells were washed with PBS and stained with propidium iodide working solution for 30 minutes in the dark. The stained cells were analyzed by flow cytometry. Cell cycle distribution was analyzed using FlowJo_V10 software. For each experiment, 20000 events per sample were recorded. Percentages of cells in G0/G1, S and G2/M phases were calculated and shown in DNA histograms.

HepG2 cells [3] = assay: Cell cycle analysis by flow cytometry, HepG2; type: cell-based, human; details: 5 and 10 μM
Procedure: as §1, §2

HepG2 cells [4] = assay: Apoptosis by Annexin V/PI flow cytometry, HepG2; type: cell-based, human; details: 10 μM; 48 h
Procedure: In order to gain deeper insights into the underlying anticancer mechanism of compound 22, experiments were performed to validate whether the induction of G1 phase cells by compound 22 was linked to apoptosis. To achieve this, the cells treated with compound 22 were subjected to PI and FITC-annexin V staining to detect apoptotic cells. […] The proportions of total apoptosis including the early stage apoptosis and the later stage of apoptosis were 66.8%, and 83.5%, respectively, at concentrations of 5 and 10 μM. This trend was similarly observed in the case of HepG2 cells. […] The impact of compound 22 on inducing cell apoptosis was less pronounced in HepG2 cells compared to Huh7 cells, aligning with the outcomes of the cell cycle analysis, providing further coherence to the observed effects of compound 22 on these cell lines.
Apoptosis was detected using an Annexin V-FITC apoptosis detection kit (Thermo Fisher Scientific) following the manufacturer’ instructions. Briefly, about 50000 cells were suspended in 500 μl of binding buffer. The cells were incubated with 5 μl FITC-conjugated Annexin V for 15 minutes and incubated with 5 μl propidium Iodide staining solution for 15 minutes in darkness at room temperature. Cell apoptosis was then analyzed by flow cytometry using a FACSCalibur flow cytometer (Becton Dickinson, San Jose, CA).

CTGF = CTGF protein expression by western blotting in Huh7 cells; type: cell-based, human; details: dose-dependent
Procedure: Treated Huh7 cells were harvested and lysed in cold RIPA lysis buffer containing […] and phosphatase inhibitors. The protein concentrations were determined using the BCA Protein Assay kit. The prepared protein samples were loaded on and separated by 10% SDS-PAGE gel and then were transferred to PVDF membrane. Blots were blocked for 1 h at RT in blocking buffer and incubated with corresponding primary antibodies: anti-CTGF (ab227180), and anti-GAPDH (ab9485), at 4 ° C overnight. Then the blots were incubated with HRP-conjugated anti-rabbit secondary antibody in blocking buffer for 1.5 h at RT. The membranes were imaged with ChemiDoc MP imaging system.

CYR61 [5] = assay: CYR61 mRNA expression by RT-qPCR in Huh7 cells; type: cell-based, human; details: dose-dependent
Procedure: (§3) Huh7 and HepG2 liver cancer cells were seeded at 1×10^6 cells/dish and allowed to adhere overnight. The cells were then treated with indicated doses of compounds in medium for 24 hours. The cells were then harvested, and total RNA was purified using the Aurum total RNA mini kit (Bio-Rad #732-6820) according to the manufacturer's instructions. Complementary DNA was synthesized from 500 ng total RNA template by iScript reverse transcription kit (Bio-Rad #1725037) according to the manufacturer's instructions. Real-time PCR reactions utilized 60 ng cDNA and PrimePCR primers from Bio-Rad (Unique Assay ID: human GAPDH-qHsaCEP0041396, human CTGF-qHsaCEP0024255, human CYR61-qHsaCEP0024230) designed for SYBR Green gene expression analysis (Bio-Rad #1726270). All reactions were carried out in triplicate using Quant Studio 3 PCR system (Applied Biosystems). Relative gene expression level was quantified via ΔΔCt method by using GAPDH as an endogenous reference.

CYR61 [6] = assay: CYR61 mRNA expression by RT-qPCR in HepG2 cells; type: cell-based, human; details: dose-dependent
Procedure: as §3

HepG2 cells [7] = assay: Apoptosis by calcein AM and ethidium homodimer-1 staining, HepG2; type: cell-based, human

In the case of `O=C(CCl)c1c[nH]c2cc(Cl)c(OCc3cccc(C(F)(F)F)c3)cc12` [Compound 22, 2-chloro-1-(6-chloro-5-((3-(trifluoromethyl)benzyl)oxy)-1H-indol-3-yl)ethan-1-one], the IC50 (Huh7 cells [1]; Huh-7, 72 h, 3 days, CCK8, mean ± SD of three independent experiments, read-out: Cell proliferation assay IC50, Huh7) is reported as 0.9 ± 0.3 µM, the IC50 (Huh7 cells [1]; Huh-7, Table 3 column is in μM, read-out: Huh7 cell growth inhibition / proliferation IC50) is reported as 0.9 µM and the “Activity ratio, 3-CF3 derivative compound 22 vs para-analogue compound 23” value (Huh7 cells [1]; more active than compound 23, Huh7) is reported as 16 fold. For the same molecule, the “Toxicity towards normal liver cell line AML12” value (AML12 cells) was “least toxic”, the “Inhibitory rate, AML12 (inhibitory percentage of AML12 cell growth)” value (AML12 cells; 10 μM, 3 days) was 22.1% and the “Co-IP of YAP with pan-TEAD antibody” value (YAP-TEAD; 1 μM, 24 hours) was “significantly diminished”. The “Interaction between YAP and TEAD” value (YAP-TEAD; "2.5 M", 24-hour treatment) was “almost entirely inhibited”, the “Percentage of cells in G1 phase, Huh7” value (Huh7 cells [2]; control group 36.4%) was 58.2% and the “Proportion of cells in S/G2 phases, Huh7” value (Huh7 cells [2]) was “distinct decrease”. For the same molecule, the “Accumulation in G1 phase, HepG2” value (HepG2 cells [3]) was “accumulation of HepG2 cells in the G1 phase”, the “Maximum apoptotic rate (early+late apoptotic), HepG2” value (HepG2 cells [4]) was 69.0% and the “CTGF protein expression, Huh7” value (CTGF) was “suppression of CTGF protein production”. The “CYR61 mRNA expression, Huh7” value (CYR61 [5]) was “significantly inhibited”, the “CYR61 mRNA expression, HepG2” value (CYR61 [6]) was “significantly inhibited” and the HepG2 cell apoptosis (HepG2 cells [7]) was “promotes HepG2 cell apoptosis”.
